Measurements reported in patent US6689767B2, “Triterpenes having antibacterial activity” (Regents of the University of Minnesota, priority 2000, dated 2004).
Converted amounts (≈) assume the structure as drawn.

Key:
Escherichia coli = assay: Kirby-Bauer disk diffusion growth inhibition, Escherichia coli; type: cell-based; conditions: for zone of inhibition at 0.125 µg/mL: Escherichia coli, read-out: Zone of inhibition Escherichia coli; for zone of inhibition at 0.125 µg/mL / Zone of inhibition Escherichia coli: 100 μl on 10 mm disk, 18 hours 37° C.; for Active against: Table 1 summary, E. coli; for effectiveness against E. Coli: Tables 1a and 1b
Procedure, shortened: (§1)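 Bacteria grown 18 h at 37 °C in nutrient broth, 0.5 ml swabbed onto Mueller-Hinton agar; 10 mm disks loaded with 100 μl compound in DMSO or water (additional compounds at 10 mg/ml in DMSO). Inhibition zones measured after 18 h at 37 °C, in triplicate.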

Staphylococcus aureus = assay: Kirby-Bauer disk diffusion growth inhibition, Staphylococcus aureus; type: cell-based; conditions: for zone of inhibition at 0.125 µg/mL: Staphylococcus aureus, read-out: Zone of inhibition Staphylococcus aureus; for zone of inhibition at 0.125 µg/mL / Zone of inhibition Staphylococcus aureus: 100 μl on 10 mm disk, 18 hours 37° C.; for Active against: Table 1 summary, S. aureus; for effectiveness against S. aureus: Tables 1a and 1b
Procedure, shortened: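 S. aureus broth culture (18 h, 37 °C) spread on Mueller-Hinton agar; 10 mm disks carrying 100 μl compound solution in DMSO or water, one set at 10 mg/ml in DMSO. Inhibition zones measured after 18 h at 37 °C, in triplicate.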

Bacillus subtilis = assay: Kirby-Bauer disk diffusion growth inhibition, Bacillus subtilis; type: cell-based; conditions: 100 μl on 10 mm disk, 18 hours 37° C.; for zone of inhibition at 0.125 µg/mL: Bacillus subtilis, read-out: Zone of inhibition Bacillus subtilis
Procedure, shortened: as §1

E. Coli = assay: Minimum inhibitory concentration in tryptic soy broth, E. coli; type: cell-based, Escherichia coli; conditions: 24 hours 37° C., turbidity
Description: (§2) Sterile tryptic soy broth was prepared according to the manufacturer's instructions (Difco Lab, Michigan). To each tube containing 7 ml of broth, test compounds dissolved in DMSO were added at different concentrations in triplicate. The tubes were incubated for 24 hours at 37° C. and then turbidity was measured using a […]. The colorimeter was calibrated with sterile broth. The MIC was the lowest concentration that could prevent an increase in turbidity.

bacteria = assay: Summary statements over the antibacterial assays above; type: cell-based; conditions: summary list
[1] = system: methicillin-resistant Staphylococcus aureus; assay: Growth inhibition of methicillin-resistant Staphylococcus aureus; type: cell-based
Description: The compounds disclosed herein were tested for growth inhibition against four strains of bacteria: Escherichia coli, Staphylococcus aureus, methicillin-resistant Staphylococcus aureus, and Bacillus subtilis. […] They represent […]. E. coli is a gram-negative, non-spore forming, rod-shaped, opportunistic pathogen that resides in the human digestive tract. S. aureus is a gram positive coccus, is usually found morphologically as a […], and is an opportunistic human pathogen, often residing on or in the skin. B. subtilis is a gram positive spore-forming rod. Its native environment is the soil. The chemicals were tested for growth-inhibition of the bacteria by the Kirby-Bauer method. See, e.g., Microbiology, third edition; Lansing M. Prescott, John P. Harley, and Donald A. Klein; Wm. C. Brown Publishers.
Mueller-Hinton agar (Difco Lab, Michigan) was prepared according to the manufacturer's directions, and 20 ml was dispensed in each sterile petri dish. Sterile nutrient broth (Difco Lab, Michigan) was also prepared according to the manufacturer's directions.
Bacteria were grown in liquid nutrient broth for 18 hours at 37° C. until they were turbid.
An aliquot of 0.5 ml of cultured bacteria was aseptically transferred to the surface of a Mueller-Hinton agar plat, and spread using a cotton-tipped swab. […]
The zones of inhibition were measured after 18 hours growth at 37° C. […]

S. aureus = assay: Minimum inhibitory concentration in tryptic soy broth, S. aureus; type: cell-based, Staphylococcus aureus; conditions: 24 hours 37° C., turbidity
Description: as §2

[2] = system: methicillin resistant S. aureus; assay: Minimum inhibitory concentration in tryptic soy broth, methicillin resistant S. aureus; type: cell-based, Staphylococcus aureus; conditions: 24 hours 37° C., turbidity
Description: as §2

Compound: CC1(C)CCC23CC[C@@]4(C)C(CCC5[C@@]6(C)C=C(O)C(=O)C(C)(C)C6CC[C@]54C)C2C1OC3=O (stereo partly drawn) [Allobetulon-lactone-1-ene-2-ol, allobetulon lactone-1-ene-2-ol]
- zone of inhibition at 0.125 µg/mL (Escherichia coli; 125 ng/ml in water): 0 mm
- zone of inhibition at 0.125 µg/mL (Staphylococcus aureus; 125 ng/ml in water): 0 mm
- zone of inhibition at 0.125 µg/mL (Bacillus subtilis; 125 ng/ml in water): 0 mm
- melting point: 238.8 to 243.6 °C

Compound: C=C(C)[C@@H]1CC[C@]2(COC(=O)COCC(=O)O)CC[C@]3(C)[C@H](CC[C@@H]4[C@@]5(C)CC[C@H](OC(=O)COCC(=O)O)C(C)(C)[C@@H]5CC[C@]43C)[C@@H]12 [Betulin 3,28-didiglycolate, Betulin-3,28-didiglycolate]
- Zone of inhibition Escherichia coli (Escherichia coli; 10 mg/ml in DMSO): 0 mm
- Active against (Escherichia coli): E. coli
- effectiveness against E. Coli (Escherichia coli): effective
- Zone of inhibition Staphylococcus aureus (Staphylococcus aureus; 10 mg/ml in DMSO): 0 mm
- Zone of inhibition Bacillus subtilis (Bacillus subtilis; 10 mg/ml in DMSO): 0 mm
- MIC (E. Coli): 0.282 µM (≈ 0.19 µg/mL)
- active against at least one strain of bacteria in the assays above (bacteria): active against at least one strain of bacteria

Compound: C=C(C)[C@@H]1CC[C@]2(COC(=O)CCCC(=O)O)CC[C@]3(C)[C@H](CC[C@@H]4[C@@]5(C)CC[C@H](OC(=O)CCCC(=O)O)C(C)(C)[C@@H]5CC[C@]43C)[C@@H]12 [Betulin 3,28-diglutarate, Betulin-3,28-diglutarate]
- Zone of inhibition Escherichia coli (Escherichia coli; 125 ng/ml in water): 12.0 mm
- Zone of inhibition Escherichia coli (Escherichia coli; 10 mg/ml in DMSO): 0 mm
- Active against (Escherichia coli): E. coli
- effectiveness against E. Coli (Escherichia coli): effective
- Zone of inhibition Staphylococcus aureus (Staphylococcus aureus; 125 ng/ml in water): 0 mm
- Zone of inhibition Staphylococcus aureus (Staphylococcus aureus; 10 mg/ml in DMSO): 0 mm
- Zone of inhibition Bacillus subtilis (Bacillus subtilis; 125 ng/ml in water): 0 mm
- Zone of inhibition Bacillus subtilis (Bacillus subtilis; 10 mg/ml in DMSO): 0 mm
- MIC (E. Coli): 0.282 µM (≈ 0.189 µg/mL)
- active against at least one strain of bacteria in the assays above (bacteria): active against at least one strain of bacteria

Compound: C=C(C)[C@@H]1CC[C@]2(COC(=O)/C=C\C(=O)O)CC[C@]3(C)[C@H](CC[C@@H]4[C@@]5(C)CC[C@H](OC(=O)/C=C\C(=O)O)C(C)(C)[C@@H]5CC[C@]43C)[C@@H]12 [Betulin 3,28-dimaleate, Betulin-3,28-dimaleate]
- Zone of inhibition Escherichia coli (Escherichia coli; 10 mg/ml in DMSO): 0 mm
- Zone of inhibition Staphylococcus aureus (Staphylococcus aureus; 10 mg/ml in DMSO): 11.0 mm
- Active against (Staphylococcus aureus): S. aureus,
- effectiveness against S. aureus (Staphylococcus aureus): effective
- amount applied to the disk that inhibited S. aureus (Staphylococcus aureus; disk diffusion assay, laboratory strain (not methicillin resistant)): 56 ng
- effectiveness against S. aureus compared with streptomycin (Staphylococcus aureus; laboratory strain (not methicillin resistant)): more effective
- Zone of inhibition Bacillus subtilis (Bacillus subtilis; 10 mg/ml in DMSO): 0 mm
- effectiveness against methicillin resistant S. aureus [1]: effective
- Active against ([1]; Table 1 summary, S. aureus methicillin resistant): S. aureus methicillin
- minimum inhibitory concentration (S. aureus): 2.3 µM (≈ 1.47 µg/mL)
- MIC [2]: 0.282 µM (≈ 0.18 µg/mL)

Compound: C=C(C)C1CCC2(COP(=O)(O)O)CC[C@@]3(C)C(CCC4[C@@]5(C)CCC(OP(=O)(O)O)C(C)(C)C5CC[C@]43C)C12 (stereo partly drawn) [Betulin 3,28-diphosphate, Betulin-3,28-diphosphate]
- zone of inhibition at 0.125 µg/mL (Escherichia coli; 125 ng/ml in water): 11 mm
- Active against (Escherichia coli): E. coli
- effectiveness against E. Coli (Escherichia coli): effective
- zone of inhibition at 0.125 µg/mL (Staphylococcus aureus; 125 ng/ml in water): 0 mm
- zone of inhibition at 0.125 µg/mL (Bacillus subtilis; 125 ng/ml in water): 0 mm
- MIC (E. Coli; Escherichia coli): 0.282 µM (≈ 0.17 µg/mL)
- active against at least one strain of bacteria in the assays above (bacteria): active against at least one strain of bacteria

Compound: C=C(C)[C@@H]1CC[C@]2(COC(=O)c3ccccc3C(=O)O)CC[C@]3(C)[C@H](CC[C@@H]4[C@@]5(C)CC[C@H](OC(=O)c6ccccc6C(=O)O)C(C)(C)[C@@H]5CC[C@]43C)[C@@H]12 [Betulin 3,28-diphthalate, Betulin-3,28-diphthalate]
- Zone of inhibition Escherichia coli (Escherichia coli; 10 mg/ml in DMSO): 0 mm
- Zone of inhibition Staphylococcus aureus (Staphylococcus aureus; 10 mg/ml in DMSO): 10.0 mm
- sensitivity of S. aureus (Staphylococcus aureus; Example 34, 10 mg/ml in DMSO): sensitive
- Active against (Staphylococcus aureus): S. aureus
- effectiveness against S. aureus (Staphylococcus aureus): effective
- Zone of inhibition Bacillus subtilis (Bacillus subtilis; 10 mg/ml in DMSO): 0 mm
- minimum inhibitory concentration (S. aureus): 2.3 µM (≈ 1.7 µg/mL)
- active against at least one strain of bacteria in the assays above (bacteria): active against at least one strain of bacteria

Compound: C=C(C)[C@@H]1CCC2(CO)CC[C@@]3(C)C(CCC4[C@@]5(C)C=C(O)C(=O)C(C)(C)C5CC[C@]43C)C12 (stereo partly drawn) [Betulon-1,2-ene-ol, betulon-1-ene-2-ol]
- zone of inhibition at 0.125 µg/mL (Escherichia coli; 125 ng/ml in water): 0 mm
- zone of inhibition at 0.125 µg/mL (Staphylococcus aureus; 125 ng/ml in water): 0 mm
- zone of inhibition at 0.125 µg/mL (Bacillus subtilis; 125 ng/ml in water): 0 mm
- melting point: 167 to 170 °C (dec.)
